In patent publication EP0188538B1, “TRANSDERMAL DELIVERY OF AZATADINE” (priority 1984, dated 1986):
Counter-ions that a name gives are not always drawn.

Test system: rabbits with intact skin
Assay: not given
Details: in vivo

SMILES | Rabbit Dermal Irritation
CN(C)CCOC(c1ccc(Cl)cc1)c1ccccn1 (stereo not shown) [Carbinoxamine maleate] | (+)
CN(C)CC[C@@H](c1ccc(Br)cc1)c1ccccn1 [Dexbrompheniramine (10%), Dexbrompheniramine] | (+)
CC(C1=C(CCN(C)C)Cc2ccccc21)c1ccccn1 (stereo not shown) [Dimethindine maleate] | (+)
CN1CCC(OC(c2ccccc2)c2ccccc2)CC1 [Diphenylpyraline HCl] | (+)
CN(C)CCOC(C)(c1ccccc1)c1ccccn1 (stereo not shown) [Doxylamine succinate] | (+)
CC(CN1c2ccccc2Sc2ccccc21)N(C)C (stereo not shown) [Promethazine HCl] | (+)
Cc1ccc(/C(=C\CN2CCCC2)c2ccccn2)cc1 [Triprolidine HCl] | (+)

Same assay, conditions: rabbit, in vivo

SMILES | dermal irritation and/or sensitization
CN1CCC(=C2c3ccccc3CCc3cccnc32)CC1 [Azatadine, 6,11-diydro-11-(1-methyl-4-piperidylidene)-5H-benzo[5,6]cyclohepta[1,2-b]pyridine] | no dermal irritation and/or sensitization

Test system: not given
Assay: not given
Details: pH 7.4

In Vitro Dermal Penetration | SMILES
(+) | CN1CCC(=C2c3ccccc3CCc3cccnc32)CC1 [Azatadine, 6,11-diydro-11-(1-methyl-4-piperidylidene)-5H-benzo[5,6]cyclohepta[1,2-b]pyridine]
(+) | CN(C)CCC(c1ccc(Cl)cc1)c1ccccn1 (stereo not shown) [Chlorpheniramine base (patch), Chlorpheniramine]

Test system: rabbits with intact skin
Assay: Screening of antihistamines for dermal irritation (24/72 hour screen, Draize grading)
Details: 24/72 hour dermal irritation screen in rabbits with intact skin; formulation strength as given in the label
From the text: The irritation results are reported as either irritating (+) or non-irritating (-), and the penetration results are reported as either good (+) or poor (-). […] Eight young adult New Zealand white rabbits were assigned to two groups. The rabbits were housed in stainless steel cages and maintained under standard laboratory conditions. Each cage was identified with a color coded label indicating the test substance, rabbit number, sex, and study number. Food and water were supplied ad libitum. On the day of dosing, the back of each rabbit was clipped free of hair. […] To prevent removal, the chambers were covered with an orthopedic stockinette and secured by a canvas coat.

SMILES | Rabbit Dermal Irritation
CN(C)CCC(c1ccc(Cl)cc1)c1ccccn1 (stereo not shown) [Chlorpheniramine base (patch), Chlorpheniramine] | (+)
CN1CCC(=C2c3ccccc3C=Cc3ccccc32)CC1 [Cyprhoheptadine HCl] | (+)
CN(C)CC[C@@H](c1ccc(Cl)cc1)c1ccccn1 [Dexchlorpheniramine base, Dexchlorpheniramine] | (+)
